Data: paper PMC10967572, “Induction of Oxidative Stress and Ferroptosis in Triple-Negative Breast Cancer Cells by Niclosamide via Blockade of the Function and Expression of SLC38A5 and SLC7A11” (Antioxidants, 2024)

What was measured:
SLC7A11 = target: T1, SLC7A11 (Homo sapiens, UniProt Q9UPY5); assay: Direct inhibition of SLC7A11 transport activity ([3H]-glutamate uptake) in TNBC cells; format: cell-based
T1 construct: endogenous in cells; host or cells: TNBC cell lines MB231, TXBR100 and MB453
T1 sequence (Q9UPY5 1-501): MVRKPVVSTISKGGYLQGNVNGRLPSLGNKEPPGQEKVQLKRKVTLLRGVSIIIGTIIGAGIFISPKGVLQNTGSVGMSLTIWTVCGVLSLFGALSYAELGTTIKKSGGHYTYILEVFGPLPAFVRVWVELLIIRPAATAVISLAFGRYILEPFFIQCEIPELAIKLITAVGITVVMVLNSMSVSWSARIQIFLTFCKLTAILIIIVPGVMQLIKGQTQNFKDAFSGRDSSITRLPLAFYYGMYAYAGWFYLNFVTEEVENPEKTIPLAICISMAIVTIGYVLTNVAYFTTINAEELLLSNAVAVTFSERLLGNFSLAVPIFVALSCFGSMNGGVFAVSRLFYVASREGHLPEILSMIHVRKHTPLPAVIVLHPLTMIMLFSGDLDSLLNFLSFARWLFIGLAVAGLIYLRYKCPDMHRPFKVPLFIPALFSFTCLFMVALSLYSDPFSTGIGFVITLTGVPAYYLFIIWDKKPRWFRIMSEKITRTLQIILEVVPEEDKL
T1 sequence (P08195 1-529 partner): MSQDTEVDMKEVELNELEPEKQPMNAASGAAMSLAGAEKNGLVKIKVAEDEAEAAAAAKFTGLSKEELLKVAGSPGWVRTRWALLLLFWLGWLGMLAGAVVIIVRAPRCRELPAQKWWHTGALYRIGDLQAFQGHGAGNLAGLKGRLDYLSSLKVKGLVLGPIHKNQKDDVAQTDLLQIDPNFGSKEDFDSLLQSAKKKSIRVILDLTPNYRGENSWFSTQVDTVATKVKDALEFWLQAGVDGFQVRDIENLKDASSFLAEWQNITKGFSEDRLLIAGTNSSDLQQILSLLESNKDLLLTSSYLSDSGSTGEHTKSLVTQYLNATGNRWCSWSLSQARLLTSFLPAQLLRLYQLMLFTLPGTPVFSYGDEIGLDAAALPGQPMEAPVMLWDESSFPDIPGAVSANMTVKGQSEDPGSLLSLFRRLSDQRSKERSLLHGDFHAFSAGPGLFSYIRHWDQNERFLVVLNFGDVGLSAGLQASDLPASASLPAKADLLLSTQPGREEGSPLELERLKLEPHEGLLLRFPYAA
Experimental: However, we routinely measure the activity of this transporter by cellular uptake of [^3H]-glutamate under Na^+-free conditions. Under these conditions, SLC7A11 mediates the cellular entry of [^3H]-glutamate in exchange for intracellular unlabeled glutamate. […] Non-carrier-mediated uptake (i.e, diffusional component) was determined by measuring the uptake of [^3H]-glutamate in the presence of excess unlabeled glutamate (5 mM). The transport activity of SLC7A11 was calculated by subtracting the diffusional component from total uptake.
Confluent cultures were used for uptake measurements.

MB231 and TXBR100 cells = assay: Cellular iron assay (Ferro-orange); format: cell-based, human; settings: niclosamide 5 μM, 30 min
Experimental: (§1) Lipid radical (ferroptosis) assay and iron assay were performed as follows. Cells were cultured on a 25 mm glass coverslip until they reached 60–70% confluency (~48 h). At the time of the experiment, cells were washed with NaCl buffer, pH 7.5 and then incubated with 1 µM of LipiRadical Green (a lipid radical detection reagent, FDV-0042, Funakoshi, Tokyo, Japan) or Ferro-orange (an iron detection probe, F374, Dojindo, Rockville, MD, USA) in NaCl buffer, pH 7.5 for 20 min and then washed with NaCl buffer, pH 7.5. To analyze the effects of modifiers of iron levels and lipid peroxidation, the cells were co-treated with the modifiers and the respective fluorescent probe for 20 min and then washed. The glass coverslip containing the cells was then probed under an inverted microscope. The fluorescence imaging was captured using a Nikon T1-E microscope with A1 confocal super-resolution module (Nikon, Dallas, TX, USA), with a 60× objective, at 488 nm. The images represent a maximum projection intensity derived from a Z-stack. The fluorescence quantification was performed by measuring the corrected total cell fluorescence (CTCF) using Image J (version: 2.14.0/1.54f) and the following formula; CTCF = (integrated density) − (area of cell of interest) × (mean fluorescence of background).

SLC38A5 and SLC7A11 mRNA = assay: qRT-PCR of SLC38A5 and SLC7A11 mRNA in TNBC cells; format: cell-based, human; settings: niclosamide 2 μM, 24 h; MB231 and TXBR100
Experimental: Total RNA was extracted from cells using TRIzol Reagent (ThermoFisher Scientific, Waltham, MA, USA) and the RNA was reverse-transcribed using a high-capacity cDNA reverse transcription kit (ThermoFisher Scientific, Waltham, MA, USA) according to the manufacturer’s protocol. Quantitative RT-PCR was performed with Takara Taq Hot Start Version (TaKaRa Biotechnology, Shiga, Japan) or Power SYBR Green PCR master mix (Bio-Rad, Hercules, CA, USA). Primer sequences are shown in Supplemental Table S1. The relative mRNA expression was determined by the 2^−∆∆Ct method. Additionally, 18S was used as a housekeeping gene for normalization.

[1] = test system: MB231 cells and TXBR100 cells; assay: Cellular glutathione levels (GSH-Glo assay); format: cell-based, human; settings: niclosamide 2 μM, 24 h; MB231 and TXBR100
Experimental: Control and niclosamide-treated cells were used for measurement of cellular glutathione levels as instructed in the manufacturer’s protocol (GSH-Glo assay, Promega, Madison, WI, USA). The levels of malondialdehyde were measured using lipid peroxidation kit [Lipid Peroxidation (MDA) Assay Kit (MAK085), Millipore-sigma, St. Louis, MO, USA].

MB231 xenograft = assay: Mouse xenograft tumor growth; format: in vivo; settings: MB231 xenograft in nude mice; niclosamide 4 mg/kg daily intraperitoneal
Experimental: Female athymic nude mice (4-week-old) were purchased from Jackson Laboratories and housed under standard conditions. MDA-MB231 cells were injected into lower mammary fat pad (5 × 10^6 cells). All cells were suspended in serum-free media and Matrigel (1:1 ratio), with 100 µL of suspension being injected into each mouse. Mice were treated by daily intraperitoneal injection of niclosamide (4 mg/kg/day) and vehicle (dimethylsulfoxide) control. The treatment began when the tumor size was 100–150 mm^3. Tumor size was measured biweekly with a caliper, with tumor volume calculated using the formula (width^2 × length)/2. Tumors were allowed to grow for 7 weeks; mice were then euthanized via isoflurane […] and tumors harvested. The animal study protocol was approved by the Texas Tech University Health Sciences Center Institutional Animal Care and Use Committee (IACUC protocol number 18005) and the experiments were conducted in the same institution. RNA and protein were prepared from the tumor tissue for qRT-PCR and Western blotting.

[2] = test system: MB231 cells and TXBR100 cells; assay: Lipid radical (ferroptosis) assay with LipiRadical Green; format: cell-based, human; settings: niclosamide 5 μM; MB231 30 min, TXBR100 2 h
Experimental: as §1

affinity for SLC7A11 relative to experimental value known for erastin (SLC7A11; niclosamide IC50 vs erastin literature value): at least three-to-four times greater
IC50 (SLC7A11; three TNBC cell lines (MB231, TXBR100, MB453), niclosamide present only during uptake, Na+-free buffer pH 7.5): ~300 nM
Compound: O=C(Nc1ccc([N+](=O)[O-])cc1Cl)c1cc(Cl)ccc1O [niclosamide]
cellular iron levels (MB231 and TXBR100 cells): increased
SLC7A11 mRNA level (SLC38A5 and SLC7A11 mRNA): decreased
SLC38A5 mRNA level (SLC38A5 and SLC7A11 mRNA): decreased
decrease in glutathione levels [1]: 60–70%
growth of the tumors (MB231 xenograft): drastic reduction
ferroptosis (lipid radical fluorescence) [2]: induced ferroptosis
